Literature values in patent publication US20200114015A1, “Novel Alpha-Hydroxy Carboxylic Acid And Derivatives And Other GRAS- Based Prodrugs Of Gamma-Hydroxybutyrate (GHB) And Uses Thereof” (priority 2017, published 2020).

Conditions: GHB marketed as Xyrem

In the case of `O=C(O)CCCO` [GHB, gamma-hydroxybutyrate], the bioavailability is listed as roughly 25% and the half life is listed as 30 to 60 min.
